Test in all cases: Yeast growth assay, specificity profiling
Holding throughout (type): cell-based
Common to all, as to parameters: key: “−” indicates no growth restoration i.e. no activity against the particular kinase; “+”, “++”, and “+++” indicate activity detected by restoration of growth, classified into three categories of potency; “+”, “++”, and “+++” indicate activity detected by restoration of growth, classified into three categories of potency; “+”, “++”, and “+++” indicate activity detected by restoration of growth, classified into three categories of potency
Settings in all cases: 7 concentrations between 0.2 and 100 μM

The target in one test is T1, EphA2 (Homo sapiens, UniProt P29317).
T1 construct: expressed in transfected cells; host or cells: yeast
Here is the method:
(§1) Specificity Profiling: Yeast Growth Assay
(§2) The yeast growth assay was performed as described in “Method for the identification and/or validation of receptor tyrosine kinase inhibitors” PCT/CH03/00694 (2004/10/24), section “Modes for Carrying out the Invention, Experiment 1 and Experiment 2.
(§3) Briefly, yeast cells carrying plasmids with the RTK of interest were grown in glucose containing medium (repressing expression). The cultures were diluted into galactose containing medium, which induces the expression of the kinase. Expression of the kinase inhibits growth of the yeast cells, which allows for positive selection of kinase inhibitors restoring growth of cells. Compounds were titrated at 7 concentrations between 0.2 and 100 μM.
(§4) Specificity profiling of compounds, using the yeast growth assay method described above. “−” indicates no growth restoration i.e. no activity against the particular kinase, “+”, “++”, and “+++” indicate activity detected by restoration of growth, classified into three categories of potency according to the maximal level of growth restoration reached and the concentration at which the maximal growth restoration is reached.

For a further test, the target named is T2, EphB4 (Homo sapiens, UniProt P54760).
T2 construct: expressed in transfected cells; host or cells: yeast
T2 sequence (P54760 16-987): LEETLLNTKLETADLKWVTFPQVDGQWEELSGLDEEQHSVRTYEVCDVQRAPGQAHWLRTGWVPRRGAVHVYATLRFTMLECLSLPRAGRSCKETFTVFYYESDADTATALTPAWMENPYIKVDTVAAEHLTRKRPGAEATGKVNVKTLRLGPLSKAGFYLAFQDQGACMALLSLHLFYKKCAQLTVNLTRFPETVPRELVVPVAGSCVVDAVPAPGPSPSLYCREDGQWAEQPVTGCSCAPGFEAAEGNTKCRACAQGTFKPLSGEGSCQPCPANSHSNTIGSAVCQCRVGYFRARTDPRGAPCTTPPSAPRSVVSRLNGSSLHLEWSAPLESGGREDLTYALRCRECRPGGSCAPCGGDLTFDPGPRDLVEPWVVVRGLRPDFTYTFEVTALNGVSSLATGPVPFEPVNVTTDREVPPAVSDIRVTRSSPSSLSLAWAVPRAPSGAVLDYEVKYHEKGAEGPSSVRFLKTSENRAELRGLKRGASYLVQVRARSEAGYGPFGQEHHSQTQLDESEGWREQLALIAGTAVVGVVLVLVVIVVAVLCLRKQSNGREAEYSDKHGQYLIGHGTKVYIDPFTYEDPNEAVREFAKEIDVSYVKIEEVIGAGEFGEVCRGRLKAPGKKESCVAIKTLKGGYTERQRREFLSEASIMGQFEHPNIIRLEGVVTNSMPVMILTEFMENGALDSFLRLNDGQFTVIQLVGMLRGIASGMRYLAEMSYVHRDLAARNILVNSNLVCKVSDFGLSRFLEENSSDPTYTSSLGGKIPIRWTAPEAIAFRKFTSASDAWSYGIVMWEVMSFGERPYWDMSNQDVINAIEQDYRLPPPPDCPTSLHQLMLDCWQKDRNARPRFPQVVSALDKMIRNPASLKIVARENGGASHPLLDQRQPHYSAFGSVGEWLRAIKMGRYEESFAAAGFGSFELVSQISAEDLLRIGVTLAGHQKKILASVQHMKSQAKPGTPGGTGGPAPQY
As for the experimental part: as §1, §2, §3, §4

A further test has as its target T3, IGF-1R (Homo sapiens, UniProt P08069).
T3 construct: expressed in transfected cells; host or cells: yeast
Here is the method:
as §1, §2, §3, §4

A further test deals with T4, TEK (Homo sapiens, UniProt Q02763).
T4 construct: expressed in transfected cells; host or cells: yeast
As for the experimental part:
as §1, §2, §3, §4

For another test, the target named is T5, VEGFR1 (Homo sapiens, UniProt P17948).
T5 construct: expressed in transfected cells; host or cells: yeast
Here is the method:
as §1, §2, §3, §4

The next test addresses T6, VEGFR2 (Homo sapiens, UniProt P35968).
T6 construct: expressed in transfected cells; host or cells: yeast
As for the experimental part: as §1, §2, §3, §4

T4 sequence (Q02763 23-1124): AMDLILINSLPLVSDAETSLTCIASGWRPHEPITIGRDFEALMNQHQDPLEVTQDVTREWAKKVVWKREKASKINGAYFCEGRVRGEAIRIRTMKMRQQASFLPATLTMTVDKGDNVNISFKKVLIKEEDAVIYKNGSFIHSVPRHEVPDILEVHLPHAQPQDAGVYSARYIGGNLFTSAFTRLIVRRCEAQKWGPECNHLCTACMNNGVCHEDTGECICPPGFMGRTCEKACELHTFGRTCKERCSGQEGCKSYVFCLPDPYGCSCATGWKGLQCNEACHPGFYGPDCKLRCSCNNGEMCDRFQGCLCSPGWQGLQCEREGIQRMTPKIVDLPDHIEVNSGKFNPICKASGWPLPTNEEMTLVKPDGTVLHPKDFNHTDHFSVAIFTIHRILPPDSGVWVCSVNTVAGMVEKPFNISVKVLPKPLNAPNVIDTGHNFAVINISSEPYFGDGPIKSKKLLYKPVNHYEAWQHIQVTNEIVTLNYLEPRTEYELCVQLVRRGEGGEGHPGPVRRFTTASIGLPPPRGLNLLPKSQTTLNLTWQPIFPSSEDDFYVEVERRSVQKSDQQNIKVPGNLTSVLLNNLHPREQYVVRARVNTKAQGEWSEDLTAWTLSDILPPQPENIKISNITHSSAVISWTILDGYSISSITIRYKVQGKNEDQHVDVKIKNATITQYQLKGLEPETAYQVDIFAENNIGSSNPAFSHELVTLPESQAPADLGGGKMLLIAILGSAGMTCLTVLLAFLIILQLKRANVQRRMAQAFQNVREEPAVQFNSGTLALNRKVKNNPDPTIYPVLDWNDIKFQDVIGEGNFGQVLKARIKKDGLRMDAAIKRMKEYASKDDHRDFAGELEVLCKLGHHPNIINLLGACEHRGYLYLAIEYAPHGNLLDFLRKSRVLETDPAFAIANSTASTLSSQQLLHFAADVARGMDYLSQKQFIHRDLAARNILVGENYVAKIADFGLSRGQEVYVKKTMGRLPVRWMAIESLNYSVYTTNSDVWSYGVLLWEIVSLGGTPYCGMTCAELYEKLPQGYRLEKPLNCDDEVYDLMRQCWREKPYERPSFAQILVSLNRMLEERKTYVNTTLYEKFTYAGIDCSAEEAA
T6 sequence (P35968 20-1356): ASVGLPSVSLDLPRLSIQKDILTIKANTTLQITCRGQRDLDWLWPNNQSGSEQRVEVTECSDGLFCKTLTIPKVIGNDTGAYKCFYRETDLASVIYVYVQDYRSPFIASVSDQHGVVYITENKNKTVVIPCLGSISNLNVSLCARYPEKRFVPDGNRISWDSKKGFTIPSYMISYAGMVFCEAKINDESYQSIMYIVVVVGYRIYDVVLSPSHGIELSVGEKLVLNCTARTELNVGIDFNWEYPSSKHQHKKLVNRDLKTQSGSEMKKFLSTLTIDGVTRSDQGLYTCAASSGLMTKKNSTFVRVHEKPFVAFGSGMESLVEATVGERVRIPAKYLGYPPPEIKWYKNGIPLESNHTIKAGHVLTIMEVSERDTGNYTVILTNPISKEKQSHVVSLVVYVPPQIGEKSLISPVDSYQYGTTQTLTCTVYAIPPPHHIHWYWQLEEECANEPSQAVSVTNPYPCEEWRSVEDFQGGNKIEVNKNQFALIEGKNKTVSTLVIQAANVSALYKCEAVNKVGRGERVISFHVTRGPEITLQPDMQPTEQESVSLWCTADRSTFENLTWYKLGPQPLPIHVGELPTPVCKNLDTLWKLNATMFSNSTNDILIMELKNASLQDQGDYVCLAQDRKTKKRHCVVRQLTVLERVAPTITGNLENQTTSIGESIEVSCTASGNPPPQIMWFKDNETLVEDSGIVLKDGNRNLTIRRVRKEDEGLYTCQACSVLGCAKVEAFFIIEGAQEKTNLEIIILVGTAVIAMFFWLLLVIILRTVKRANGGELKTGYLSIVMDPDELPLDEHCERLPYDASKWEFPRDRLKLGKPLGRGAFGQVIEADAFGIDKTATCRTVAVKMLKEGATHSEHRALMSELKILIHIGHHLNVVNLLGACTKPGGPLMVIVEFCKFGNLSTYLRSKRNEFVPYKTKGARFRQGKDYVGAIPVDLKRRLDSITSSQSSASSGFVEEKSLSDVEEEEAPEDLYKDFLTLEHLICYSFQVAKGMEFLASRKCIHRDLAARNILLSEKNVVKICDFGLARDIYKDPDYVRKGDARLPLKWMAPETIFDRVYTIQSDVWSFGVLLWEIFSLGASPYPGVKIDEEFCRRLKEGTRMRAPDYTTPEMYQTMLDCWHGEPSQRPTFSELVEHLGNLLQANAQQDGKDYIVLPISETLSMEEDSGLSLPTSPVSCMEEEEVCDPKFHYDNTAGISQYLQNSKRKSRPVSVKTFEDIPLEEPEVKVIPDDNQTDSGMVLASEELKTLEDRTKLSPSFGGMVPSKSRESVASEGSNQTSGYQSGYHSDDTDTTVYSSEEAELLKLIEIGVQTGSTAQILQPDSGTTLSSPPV
T5 sequence (P17948 27-1338): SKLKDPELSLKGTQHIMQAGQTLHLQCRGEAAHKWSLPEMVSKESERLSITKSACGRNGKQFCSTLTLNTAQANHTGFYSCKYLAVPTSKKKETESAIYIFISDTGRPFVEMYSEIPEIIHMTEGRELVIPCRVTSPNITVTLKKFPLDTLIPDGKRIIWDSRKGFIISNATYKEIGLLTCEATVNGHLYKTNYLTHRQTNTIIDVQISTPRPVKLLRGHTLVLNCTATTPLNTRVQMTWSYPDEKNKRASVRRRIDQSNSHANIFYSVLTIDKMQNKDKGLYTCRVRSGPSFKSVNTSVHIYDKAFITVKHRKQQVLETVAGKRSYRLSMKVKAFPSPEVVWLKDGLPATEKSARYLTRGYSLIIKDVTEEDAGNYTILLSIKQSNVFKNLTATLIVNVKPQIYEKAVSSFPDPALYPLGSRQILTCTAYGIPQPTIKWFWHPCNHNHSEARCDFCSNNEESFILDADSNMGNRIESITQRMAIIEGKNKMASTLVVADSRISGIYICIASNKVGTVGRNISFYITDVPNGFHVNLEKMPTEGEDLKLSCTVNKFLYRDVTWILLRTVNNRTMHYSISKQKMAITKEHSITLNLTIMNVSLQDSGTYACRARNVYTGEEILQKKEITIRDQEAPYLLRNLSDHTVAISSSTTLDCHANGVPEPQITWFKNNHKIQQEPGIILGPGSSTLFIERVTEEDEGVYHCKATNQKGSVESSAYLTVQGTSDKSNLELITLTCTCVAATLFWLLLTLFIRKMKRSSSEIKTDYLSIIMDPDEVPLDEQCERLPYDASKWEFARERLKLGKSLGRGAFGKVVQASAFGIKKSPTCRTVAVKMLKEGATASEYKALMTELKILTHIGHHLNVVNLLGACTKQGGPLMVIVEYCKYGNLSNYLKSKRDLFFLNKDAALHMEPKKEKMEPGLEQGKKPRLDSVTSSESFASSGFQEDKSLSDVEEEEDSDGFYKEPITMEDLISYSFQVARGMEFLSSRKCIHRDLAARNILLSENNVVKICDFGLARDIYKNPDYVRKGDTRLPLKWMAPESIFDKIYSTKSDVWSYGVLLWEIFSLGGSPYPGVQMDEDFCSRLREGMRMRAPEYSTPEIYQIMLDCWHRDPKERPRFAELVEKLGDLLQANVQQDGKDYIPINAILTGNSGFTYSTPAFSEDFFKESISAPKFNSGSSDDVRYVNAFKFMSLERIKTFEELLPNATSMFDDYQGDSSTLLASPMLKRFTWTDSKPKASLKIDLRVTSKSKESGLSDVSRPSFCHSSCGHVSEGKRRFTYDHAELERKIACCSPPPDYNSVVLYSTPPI
T1 sequence (P29317 24-976): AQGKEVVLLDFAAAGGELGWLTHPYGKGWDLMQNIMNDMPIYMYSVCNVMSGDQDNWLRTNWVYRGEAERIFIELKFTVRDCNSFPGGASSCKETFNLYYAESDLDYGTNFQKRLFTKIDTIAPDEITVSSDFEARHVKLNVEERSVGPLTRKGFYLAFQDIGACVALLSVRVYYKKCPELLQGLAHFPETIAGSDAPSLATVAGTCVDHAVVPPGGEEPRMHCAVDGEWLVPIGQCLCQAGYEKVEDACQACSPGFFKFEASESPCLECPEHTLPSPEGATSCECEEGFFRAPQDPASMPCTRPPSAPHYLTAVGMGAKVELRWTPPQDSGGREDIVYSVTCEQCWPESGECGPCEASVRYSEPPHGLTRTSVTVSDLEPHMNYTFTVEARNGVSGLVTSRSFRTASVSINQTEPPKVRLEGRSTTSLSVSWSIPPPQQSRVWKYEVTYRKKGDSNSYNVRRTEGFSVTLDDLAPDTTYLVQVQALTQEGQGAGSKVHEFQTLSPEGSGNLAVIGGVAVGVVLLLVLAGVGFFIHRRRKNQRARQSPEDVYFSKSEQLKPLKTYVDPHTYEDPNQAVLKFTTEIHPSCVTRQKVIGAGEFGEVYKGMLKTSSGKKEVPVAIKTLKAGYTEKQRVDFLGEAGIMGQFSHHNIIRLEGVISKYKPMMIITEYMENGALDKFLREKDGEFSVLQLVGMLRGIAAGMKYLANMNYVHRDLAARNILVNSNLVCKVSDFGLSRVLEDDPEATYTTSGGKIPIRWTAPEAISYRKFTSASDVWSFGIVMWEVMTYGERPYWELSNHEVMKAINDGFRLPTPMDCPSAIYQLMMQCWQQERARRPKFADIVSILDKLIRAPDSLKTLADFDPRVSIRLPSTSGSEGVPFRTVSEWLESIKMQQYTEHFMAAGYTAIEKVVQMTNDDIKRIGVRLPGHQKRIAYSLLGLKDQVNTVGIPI

Consider `Cc1nccn2c(Nc3cccc(Cl)c3)c(-c3ccccc3)nc12` [compound 3, (3-Chloro-phenyl)-(8-methyl-2-phenyl-imidazo[1,2-a]pyrazin-3-yl)-amine], for which, at EphA2, the EphA2 growth restoration entry is listed as “−”. Also, the EphB4 growth restoration result at EphB4 is listed as “++”. Also, the IGF-1R growth restoration entry on IGF-1R is listed as “−”. For the same compound, the TEK growth restoration entry at TEK is on record as “−”. Further, at VEGFR1, the VEGFR1 growth restoration entry is given as “−”. Moreover, the VEGFR2 growth restoration result on VEGFR2 is listed as “−”.

For `COc1cccc(-c2nc3cnccn3c2Nc2cccc(Cl)c2)c1` [compound 7, (3-Chloro-phenyl)-[2-(3-methoxy-phenyl)-imidazo[1,2-a]pyrazin-3-yl]-amine], at EphA2, the EphA2 growth restoration entry is recorded as “−”. For the same compound, the EphB4 growth restoration result at EphB4 was “+”. Also, the IGF-1R growth restoration result at IGF-1R was “−”. Besides, at TEK, the TEK growth restoration result is reported as “−”. Moreover, the VEGFR1 growth restoration entry at VEGFR1 is recorded as “−”. Further, the VEGFR2 growth restoration result at VEGFR2 is given as “−”.

In the case of `CC(=O)Nc1ccc(-c2nc3cnccn3c2Nc2cccc(Cl)c2)cc1` [compound 8, N-{4-[3-(3-Chloro-phenylamino)-imidazo[1,2-a]pyrazin-2-yl]-phenyl}-acetamide], the EphA2 growth restoration result at EphA2 is recorded as “+”. Further, the EphB4 growth restoration entry at EphB4 is “++”. For the same compound, the IGF-1R growth restoration entry on IGF-1R is given as “−”. Further, the TEK growth restoration entry at TEK was “−”. In addition, the VEGFR1 growth restoration result at VEGFR1 is reported as “−”. For the same compound, the VEGFR2 growth restoration entry on VEGFR2 was “−”.

For the compound `Nc1ccc(-c2nc3cnccn3c2Nc2cccc(Cl)c2)cc1` [compound 10, [2-(4-Amino-phenyl)-imidazo[1,2-a]pyrazin-3-yl]-(3-chloro-phenyl)-amine], the EphA2 growth restoration entry at EphA2 was “++”. The EphB4 growth restoration entry at EphB4 is on record as “+++”. Moreover, the IGF-1R growth restoration result at IGF-1R was “−”. Further, at TEK, the TEK growth restoration result is given as “−”. Moreover, the VEGFR1 growth restoration entry at VEGFR1 is “−”. The VEGFR2 growth restoration result on VEGFR2 is reported as “−”.

With `CC(C)c1nc2cnccn2c1Nc1cccc(Cl)c1` [compound 12, (3-Chloro-phenyl)-(2-isopropyl-imidazo[1,2-a]pyrazin-3-yl)-amine], the EphA2 growth restoration result on EphA2 was “+”. The EphB4 growth restoration entry at EphB4 is “+”. For the same compound, the IGF-1R growth restoration entry on IGF-1R is reported as “−”. In addition, the TEK growth restoration entry at TEK is on record as “−”. Besides, the VEGFR1 growth restoration entry at VEGFR1 is listed as “−”. Moreover, on VEGFR2, the VEGFR2 growth restoration result is on record as “−”.

On to `Brc1cccc(Nc2c(-c3ccccc3)nc3cnccn23)c1` [compound 14, (3-Bromo-phenyl)-(2-phenyl-imidazo[1,2-a]pyrazin-3-yl)-amine], for which the EphA2 growth restoration entry at EphA2 is on record as “−”. For the same compound, the EphB4 growth restoration result on EphB4 is given as “−”. Besides, the IGF-1R growth restoration entry at IGF-1R is reported as “−”. Also, the TEK growth restoration result on TEK is reported as “−”. The VEGFR1 growth restoration entry at VEGFR1 was “−”. Moreover, the VEGFR2 growth restoration result on VEGFR2 was “−”.

As for `Clc1ccc(Nc2c(-c3ccccc3)nc3cnccn23)cc1` [compound 16, (4-Chloro-phenyl)-(2-phenyl-imidazo[1,2-a]pyrazin-3-yl)-amine], at EphA2, the EphA2 growth restoration result was “−”. Also, the EphB4 growth restoration result at EphB4 is “+”. Moreover, the IGF-1R growth restoration entry on IGF-1R was “−”. The TEK growth restoration entry on TEK is “−”. Moreover, the VEGFR1 growth restoration result at VEGFR1 is recorded as “−”. Moreover, the VEGFR2 growth restoration result on VEGFR2 was “−”.

Consider `CNc1nccn2c(Nc3cccc(Cl)c3)c(-c3ccccc3)nc12` [compound 20, N′3-(3-Chloro-phenyl)-N′8-methyl-2-phenyl-imidazo[1,2-a]pyrazine-3,8-diamine], for which, at EphA2, the EphA2 growth restoration result is reported as “−”. For the same compound, at EphB4, the EphB4 growth restoration entry was “−”. Further, at IGF-1R, the IGF-1R growth restoration result is recorded as “−”. Moreover, at TEK, the TEK growth restoration result is reported as “−”. Also, the VEGFR1 growth restoration entry at VEGFR1 is “−”. Besides, the VEGFR2 growth restoration entry at VEGFR2 is “−”.

For the compound `c1ccc(Nc2c(-c3ccccc3)nc3cnccn23)cc1` [compound 23, Phenyl-(2-phenyl-imidazo[1,2-a]pyrazin-3-yl)-amine], the EphA2 growth restoration result at EphA2 is on record as “+”. In addition, the EphB4 growth restoration entry at EphB4 is “++”. The IGF-1R growth restoration result on IGF-1R is listed as “−”. Also, the TEK growth restoration entry on TEK is on record as “−”. At VEGFR1, the VEGFR1 growth restoration entry is “−”. Further, the VEGFR2 growth restoration entry on VEGFR2 is recorded as “−”.

For `Fc1cccc(Nc2c(-c3ccccc3)nc3cnccn23)c1` [compound 26, (3-Fluoro-phenyl)-(2-phenyl-imidazo[1,2-a]pyrazin-3-yl)-amine], the EphA2 growth restoration result at EphA2 was “−”. The EphB4 growth restoration result on EphB4 is recorded as “++”. In addition, the IGF-1R growth restoration result on IGF-1R is “−”. In addition, the TEK growth restoration entry on TEK is listed as “−”. The VEGFR1 growth restoration result on VEGFR1 is listed as “−”. On VEGFR2, the VEGFR2 growth restoration entry is recorded as “−”.

With `Fc1ccc(Nc2c(-c3ccccc3)nc3cnccn23)cc1F` [compound 30, (3,4-Difluoro-phenyl)-(2-phenyl-imidazo[1,2-a]pyrazin-3-yl)-amine], the EphA2 growth restoration result at EphA2 is reported as “−”. The EphB4 growth restoration entry at EphB4 was “++”. Further, on IGF-1R, the IGF-1R growth restoration entry is reported as “−”. The TEK growth restoration result on TEK is on record as “−”. Also, the VEGFR1 growth restoration result on VEGFR1 is given as “−”. Also, the VEGFR2 growth restoration entry at VEGFR2 is reported as “−”.

On to `CC(=O)Nc1ccc(-c2nc3c(C)nccn3c2Nc2cccc(Cl)c2)cc1` [compound 33, N-{4-[3-(3-Chloro-phenylamino)-8-methyl-imidazo[1,2-a]pyrazin-2-yl]-phenyl}-acetamide], for which, on EphA2, the EphA2 growth restoration entry is recorded as “+”. For the same compound, at EphB4, the EphB4 growth restoration result is recorded as “+++”. In addition, the IGF-1R growth restoration entry at IGF-1R is recorded as “−”. At TEK, the TEK growth restoration entry is recorded as “−”. Also, the VEGFR1 growth restoration entry on VEGFR1 is reported as “−”. Moreover, the VEGFR2 growth restoration result at VEGFR2 was “−”.

Values taken from US20070149535A1, “Protein kinase inhibitors” (ONCALIS AG, priority 2004, published 2007).
